US6403615B1, “2-Aryl-3-aroylbenzo {b} thiophenes useful for the treatment of estrogen deprivation syndrome” (Eli Lilly and Company, priority 1997, dated 2002)

Columns and labels:
[1] = system: ovariectomized (OVX) rats; assay: Osteoporosis (bone mineral density) in ovariectomized rat model; assay type: in vivo, Sprague Dawley rats; details: oral in 20% hydroxypropyl β-cyclodextrin, daily for 35 days, femur x-ray image analysis, tibia quantitative computed tomography
Source text: Seventy-five day old female Sprague Dawley rats (weight range of 200g to 225 g) are obtained from Charles River Laboratories (Portage, Mich.). The animals are either bilaterally ovariectomized (OVX) or exposed to a Sham surgical procedure at Charles River Laboratories, and then shipped after one week. Upon arrival, they are housed in metal hanging cages in groups of 3 or 4 per cage and have ad libitum access to food (calcium content approximately 0.5%) and water for one week. Room temperature is maintained at 22.2°±1.7° C. with a minimum relative humidity of 40%. The photoperiod in the room is 12 hours light and 12 hours dark.
Following the General Procedure, infra, the rats are treated daily for 35 days (6 rats per treatment group) and sacrificed by carbon dioxide asphyxiation on the 36th day. The 35 day time period is sufficient to allow maximal reduction in bone density, measured as described herein. At the time of sacrifice, the uteri are removed, dissected free of extraneous tissue, and the fluid contents are expelled before determination of wet weight in order to confirm estrogen deficiency associated with complete ovariectomy. […]
The right femurs are excised and digitilized x-rays generated and analyzed by an image analysis program (NIH image) at the distal metaphysis. The proximal aspect of the tibiae from these animals are also scanned by quantitative computed tomography.

melting point | Structure (SMILES) | loss of bone mineral density [1]
138 to 140 °C | COc1ccc(C(=O)c2c(-c3ccc(O)cc3)sc3cc(O)ccc23)cc1 [Example 2, 2-(4-Hydroxyphenyl)-3-(4-Methoxybenzoyl)-6-Hydroxybenzo[b]thiophene] | –
114 to 116 °C | COc1ccc(-c2sc3cc(OC)ccc3c2C(=O)c2ccc(O)cc2)cc1 [Example 3, 2-(4-Methoxyphenyl)-3-(4-Hydroxybenzoyl)-6-Methoxybenzo[b]thiophene] | –
– | C#C[C@]1(O)CC[C@H]2[C@@H]3CCc4cc(O)ccc4[C@H]3CC[C@@]21C [ethynyl estradiol, 17-α-ethynyl estradiol] | a reduction in the loss of bone mineral density
